Measurements from patent US5618791A, “Memory enhancing peptides” (Shanghai Institute of Biochemistry, priority 1992, dated 1997).
Square brackets hold non-standard residues; d marks the D form. Ends that are not written are not given here. Peptide text beside a SMILES is read from it. pGlu = O=C1CC[C@@H](C(=O)O)N1; Hme = not defined here

Legend:
[1] = test system: adult rats; conditions: cited from earlier work
[2] = test system: adult rats; experiment: Passive avoidance response of adult rats, step-through one trial learning test in a shuttle box; format: in vivo
Protocol: (§1) Biological activities of MEPs of the invention are confirmed by bioassay. Blood pressure measurements and urine output measurements were performed on adult rats after intravenous administration of MEPs under ether anesthesia. Passive avoidance behavior of adult rats was carried out in a step-through one trial learning test in a shuttle box, and brightness discrimination tests were performed in a radiant Y maze. Rats neonatally administered with MEPs of the invention were trained during an immature period and subsequently tested as adults.
(§2) Memory enhancing responses were assessed by two kinds of behavioral records, i.e., passive avoidance response of adult rats in a shuttle box and the performance in a radiant Y maze in the acquisition and retention of brightness discrimination of rats neonatally administered. The results are set out in Table I. All MEPs of the invention show significant positive behavioral responses when rats have received a subcutaneous administration of MEP within the dosage range 1 ng-1 μg per animal. MEPs of the invention show a memory enhancing potency 10-100 times that of AVP.

[3] = test system: rats; experiment: Brightness discrimination test in a radiant Y maze; format: in vivo, rat; conditions: adult rats; oral 20 μg/kg/day for 30 days
Protocol: as §1, §2
Additionally, oral administration of NLPR to adult rats at a dose of 20 μg/kg/day for 30 days produced a positive brightness discrimination assay.

Compound	acquisition of active or passive avoidance responses [1]	extinction of active or passive avoidance responses [1]	Passive Avoidance adult rat effective dose [2]	brightness discrimination assay [3]
NC(=O)CC[C@@H]1NC(=O)[C@H](Cc2ccccc2)NC(=O)[C@H](Cc2ccc(O)cc2)NC(=O)[C@@H](N)CSSC[C@@H](C(=O)N2CCC[C@H]2C(=O)N[C@@H](CCCN=C(N)N)C(=O)NCC(N)=O)NC(=O)[C@H](CC(N)=O)NC1=O [AVP, arginine vasopressin]	no effect	retarded	300-1000 ng/200 g body wt.	
CC(=O)N[C@@H](CC(N)=O)C(=O)N[C@@H](CC(C)C)C(=O)N1CCC[C@H]1C(=O)N[C@@H](CCCNC(=N)N)C(N)=O [AcNLPR--NH2] (Ac-NLPR-NH2)			3-10 ng/200 g body wt.	
CC(C)C[C@H](NC(=O)[C@@H](N)CC(N)=O)C(=O)N1CCC[C@H]1C(=O)N[C@@H](CCCNC(=N)N)C(=O)O [NLPR] (H-NLPR-OH)			3-10 ng/200 g body wt.	positive
CC(C)C[C@H](NC(=O)[C@H](CC(N)=O)NC(=O)[C@@H]1CCC(=O)N1)C(=O)N1CCC[C@H]1C(=O)N[C@@H](CCCNC(=N)N)C(=O)O [ZNLPR] ([pGlu]NLPR-OH)			10 ng/200 g body wt.	
ZN(Hme)PR: pyroglutamyl-Asn-Hme-Pro-Arg; Hme = Homomethionine (Smethylcysteine) ([pGlu]N[Hme]PR; reading uncertain; also: printed as ZN(Hme)PR)			10-100 ng/200 g body wt.	
